Patent US20040048816A1, “Restenosis treatment” (priority 2000, published 2004)

Experiments:
[1] = system: primary human coronary smooth muscle cells; experiment: Flow cytometry of apoptosis in cultured SMCs (FITC-Annexin V / PI double staining); assay type: cell-based
Experimental: The effect of IFNγ on the survival of cultured proliferating SMCs was analyzed by flow cytometry. For this reason primary human coronary smooth muscle cells were obtained from CellSystems (Germany) and were grown in Smooth muscle cell growth medium (CellSystems) containing 5% fetal calf serum (CellSystems) at 37° C. in a humidified atmosphere of 5% CO2. SMCs were used between passages 2 and 4. Treatment with 1000 U/ml rh-IFNγ (R&D Systems) was performed for 16 h. For induction of cell death, SMCs were incubated at 37° C. for 1 h in HBSS containing 100 μmol/l H2O2 and 100 μmol/l ferrous sulfate. Afterwards the cells were further cultured in freshly prepared culture medium for 8 h. Cells were labelled with FITC-labelled Annexin V (Roche Diagnostics) and propidium iodide (PI) according to the manufacturer's instructions. 10^4 events were analyzed with a flow cytometer (Becton Dickinson).

[2] = system: human coronary artery smooth muscle cells (CASMC); experiment: Transcriptome analysis (cDNA arrays) of treated cultured CASMC; assay type: cell-based; settings: 1000 U/ml IFN-γ, 16 hours, 37° C.
Experimental: To adapt the transcriptional profile of cultured human coronary artery smooth muscle cells (CASMC) (Clonetics) to that of neointima, CASMC were stimulated with IFN-g and performed transcriptome analysis as described above. CASMC were cultured as described in the manufacter's manual in growth medium until 50% confluency was reached. Afterwards cells were stimulated with 1000 U/ml IFN-γ (R&D, Germany) for 16 hours at 37° C. Cells were washed twice in PBS and RNA preparation, cDNA synthesis and amplification and transcriptome analysis was performed as described above.
As proliferating CASMC overexpress FKBP12 like neointima, this cell line can be employed as a potential surrogate cell line for neointima in respect to therapeutic effects of rapamycin. Therefore, in a first step, CASMC were incubated with lo0ng/ml rapamycin (Sigma) for 24 hours and transcriptome analysis was performed in order to monitore the therapeutic effect.
Afterwards, microscopic specimen of in-stent restenotic tissue are incubated with rapamycin and transcriptome analysis was performed as described herein above. Transcriptome/gene expression pattern of rapamycin treated CASMC was compared to the transcriptome of rapamycin-treated neointima to measured the effectiveness of CASMC as a surrogate cell line for neointima.

glycoprotein IIb/IIIa = biological target: T1, glycoprotein IIb/IIIa (Homo sapiens, UniProt P05106+P08514); settings: at 30 days after surgery; versus 10.6%; cited from earlier work
T1 construct: host or cells: patients in clinical trials (endogenous protein)

Substance | spontaneous apoptosis (apoptotic cells) ([1]; SMCs after 1000 U/ml rh-IFNγ for 16 h, untreated 10%) | number of apoptotic cells after induction of apoptosis with H2O2 ([1]; SMCs, 1000 U/ml rh-IFNγ 16 h, then 100 μmol/l H2O2, without IFNγ 54%) | gene expression pattern of CASMCs after incubation [2] | death rate, myocardial infarction and/or target vessel vascularization (glycoprotein IIb/IIIa)
IFNγ: recombinant human interferon γ (R&D Systems), a cytokine mainly produced by T-lymphocytes | 6% | 27% | neointima-specific IFN-γ gene expression pattern could be generated | 
abciximab: monoclonal antibody recognizing glycoprotein IIb/IIIa |  |  |  | 5.3%
